The text below walks through data of paper PMC8007111, “Novel Potent Muscarinic Receptor Antagonists: Investigation on the Nature of Lipophilic Substituents in the 5- and/or 6-Positions of the 1,4-Dioxane Nucleus” (Journal of Medicinal Chemistry, 2020).

One series concerns the target T1, hM5 mAChR (Homo sapiens, UniProt P08912).
T1 construct: expressed in transfected cells; host or cells: CHO-K1 (membrane preparation)
T1 sequence (P08912 1-532): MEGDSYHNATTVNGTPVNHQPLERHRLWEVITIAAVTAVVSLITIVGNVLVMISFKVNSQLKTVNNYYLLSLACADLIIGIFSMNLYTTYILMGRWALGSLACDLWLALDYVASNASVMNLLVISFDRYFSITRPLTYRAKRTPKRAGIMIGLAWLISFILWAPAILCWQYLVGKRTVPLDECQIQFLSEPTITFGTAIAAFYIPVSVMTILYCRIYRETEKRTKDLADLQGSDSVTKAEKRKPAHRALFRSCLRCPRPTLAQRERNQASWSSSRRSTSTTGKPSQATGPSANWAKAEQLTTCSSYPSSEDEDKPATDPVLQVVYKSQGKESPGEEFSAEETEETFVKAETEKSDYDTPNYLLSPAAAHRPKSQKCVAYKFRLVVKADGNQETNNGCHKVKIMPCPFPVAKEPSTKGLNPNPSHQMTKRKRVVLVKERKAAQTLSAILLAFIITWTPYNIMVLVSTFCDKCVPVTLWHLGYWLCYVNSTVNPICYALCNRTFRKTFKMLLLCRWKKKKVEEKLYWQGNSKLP
Put plainly: [3H]NMS inhibition radioligand binding, hM5 in CHO-K1 cell membranes.

For a further series, the target named is T2, hM2 mAChR (Homo sapiens, UniProt P08172).
T2 construct: expressed in transfected cells; host or cells: CHO-K1 (membrane preparation)
T2 sequence (P08172 1-466): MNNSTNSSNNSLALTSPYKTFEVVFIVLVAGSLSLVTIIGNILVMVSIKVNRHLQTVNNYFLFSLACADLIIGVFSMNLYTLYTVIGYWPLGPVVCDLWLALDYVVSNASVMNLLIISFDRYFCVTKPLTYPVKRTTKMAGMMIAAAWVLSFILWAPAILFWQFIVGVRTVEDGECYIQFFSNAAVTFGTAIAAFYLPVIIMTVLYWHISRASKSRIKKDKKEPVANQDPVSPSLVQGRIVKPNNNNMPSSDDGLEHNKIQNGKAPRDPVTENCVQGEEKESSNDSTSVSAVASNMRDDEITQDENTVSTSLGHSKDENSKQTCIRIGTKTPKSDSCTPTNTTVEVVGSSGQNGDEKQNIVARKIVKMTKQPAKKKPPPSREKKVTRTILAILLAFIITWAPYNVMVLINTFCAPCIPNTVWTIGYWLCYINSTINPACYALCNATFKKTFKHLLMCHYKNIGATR
Put plainly: [3H]NMS inhibition radioligand binding, hM2 in CHO-K1 cell membranes. The following applies: for ER (eudismic ratio) hM2: eutomer vs distomer.

Another series addresses T3, hM1 mAChR (Homo sapiens, UniProt P11229).
T3 construct: expressed in transfected cells; host or cells: CHO-K1 (membrane preparation)
T3 sequence (P11229 1-460): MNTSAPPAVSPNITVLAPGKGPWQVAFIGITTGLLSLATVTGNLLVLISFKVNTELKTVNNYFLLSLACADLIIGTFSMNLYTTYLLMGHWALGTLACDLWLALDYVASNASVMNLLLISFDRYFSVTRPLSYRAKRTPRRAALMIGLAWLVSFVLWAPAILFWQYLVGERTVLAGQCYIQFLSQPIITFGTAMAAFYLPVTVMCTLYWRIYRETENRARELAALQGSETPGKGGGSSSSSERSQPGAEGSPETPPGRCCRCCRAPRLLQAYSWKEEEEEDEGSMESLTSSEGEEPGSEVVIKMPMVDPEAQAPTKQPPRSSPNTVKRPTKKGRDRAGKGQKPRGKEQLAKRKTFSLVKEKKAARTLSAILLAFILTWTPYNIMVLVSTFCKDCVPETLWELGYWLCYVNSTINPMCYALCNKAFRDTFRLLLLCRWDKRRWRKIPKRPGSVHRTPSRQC
Put plainly: [3H]NMS inhibition radioligand binding, hM1 in CHO-K1 cell membranes. The following applies: for ER (eudismic ratio) hM1: eutomer vs distomer.

For a further series, the target named is T4, hM3 mAChR (Homo sapiens, UniProt P20309).
T4 construct: expressed in transfected cells; host or cells: CHO-K1 (membrane preparation)
T4 sequence (P20309 whole entry): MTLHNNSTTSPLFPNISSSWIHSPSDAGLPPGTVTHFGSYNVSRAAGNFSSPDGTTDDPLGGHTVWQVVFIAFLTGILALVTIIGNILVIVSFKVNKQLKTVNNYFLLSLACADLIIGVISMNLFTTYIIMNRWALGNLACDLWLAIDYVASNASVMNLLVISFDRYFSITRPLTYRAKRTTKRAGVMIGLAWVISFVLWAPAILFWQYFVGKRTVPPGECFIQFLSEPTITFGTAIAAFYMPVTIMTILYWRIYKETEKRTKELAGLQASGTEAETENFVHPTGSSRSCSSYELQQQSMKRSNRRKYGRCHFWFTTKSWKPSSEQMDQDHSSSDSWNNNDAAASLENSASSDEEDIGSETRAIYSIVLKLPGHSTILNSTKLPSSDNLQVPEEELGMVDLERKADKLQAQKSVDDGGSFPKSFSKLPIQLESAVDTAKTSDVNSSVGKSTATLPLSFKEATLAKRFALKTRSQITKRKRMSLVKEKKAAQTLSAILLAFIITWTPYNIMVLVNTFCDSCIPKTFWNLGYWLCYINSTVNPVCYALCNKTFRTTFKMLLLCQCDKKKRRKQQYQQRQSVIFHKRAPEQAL
Put plainly: [3H]NMS inhibition radioligand binding, hM3 in CHO-K1 cell membranes. The settings on record: for ER (eudismic ratio) hM3: eutomer vs distomer.

The target of a further series is T5, hM4 mAChR (Homo sapiens, UniProt P08173).
T5 construct: expressed in transfected cells; host or cells: CHO-K1 (membrane preparation)
T5 sequence (P08173 1-479): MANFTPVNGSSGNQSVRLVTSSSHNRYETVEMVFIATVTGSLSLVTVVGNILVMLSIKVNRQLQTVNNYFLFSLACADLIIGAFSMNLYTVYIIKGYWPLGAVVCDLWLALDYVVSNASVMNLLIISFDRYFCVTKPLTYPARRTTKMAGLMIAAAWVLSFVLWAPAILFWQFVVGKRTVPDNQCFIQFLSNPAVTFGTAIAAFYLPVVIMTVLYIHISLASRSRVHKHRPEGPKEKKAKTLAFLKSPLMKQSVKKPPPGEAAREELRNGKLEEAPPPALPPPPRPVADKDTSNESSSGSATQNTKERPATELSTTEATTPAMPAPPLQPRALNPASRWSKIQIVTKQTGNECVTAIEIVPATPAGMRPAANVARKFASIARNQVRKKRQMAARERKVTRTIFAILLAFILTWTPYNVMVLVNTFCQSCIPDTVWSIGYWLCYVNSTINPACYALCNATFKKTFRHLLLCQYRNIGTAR
As to the kind of experiment: [3H]NMS inhibition radioligand binding, hM4 in CHO-K1 cell membranes. The following applies: for ER (eudismic ratio) hM4: eutomer vs distomer.

The next series relates to urinary bladder. Also on record: method as in PMID 22243489. The following applies: anesthetized rats; compared to oxybutynin; cited from earlier work.
Series [1] concerns MSCs from mouse bone marrow. As to the kind of experiment: Carbachol-induced MSC viability (MTS assay). The series is classed as cell-based. How it is done:
It is well established that bone marrow MSC behavior is influenced by a variety of signaling systems. In context, cholinergic intramural stimuli and, in particular, muscarinic signals orchestrate MSCs viability and commitment.[11],[12] Considering also the pluripotent MSC nature and their contribution to bone, blood, and systemic homeostasis,[53] viability studies on MSCs were performed to determine the functional profile of 3b, the most interesting compound in this series. […] Successively, the efficacy of 3b in contrasting cell viability induced by the well-known mAChR agonist carbachol was evaluated. […] Further research on the intracellular mechanistic outcomes of 3b on MSCs remains mandatory.
The in vitro studies were performed by using bone marrow MSCs as a model. Male BALB/c mice (Harlan Italy SrL, Milano, Italy) (8 weeks old; body weight ∼24.5 g; n = 4) were kept in a laminar-flow cage in a standardized environmental condition. Food (Harlan, Italy), and water was supplied ad libitum. Mice were sacrificed by CO2 narcosis and cervical dislocation in accordance with the recommendations of the Italian Ethical Committee and under the supervision of authorized investigators. Long bones (femurs and tibiae) were dissected and cleaned from skin, muscle, and connective tissues as much as possible. Bones were placed in a culture dish containing sterile PBS. Then, the bone cavity was flushed in DMEM with a syringe in order to collect the bone marrow cells into a 50 mL sterile tube. […] After 2 weeks of initiating culture, cells were washed with PBS, detached by trypsinization, counted, and plated at the density of 5,000 cells/well in 96 culture plates (Costar Corp., Milano, Italy) in DMEM containing 10% HIFCS, penicillin, and streptomycin.
MSCs were treated with compound 3b (from 10^–4 to 10^–10 M) for 24 h. […] At the end of each procedure, the MSCs viability was measured by MTS assay. […] The quantity of the formazan product was directly proportional to the number of living cells in culture. The colored formazan was measured by reading the absorbance at 490 nm using a […] plate reader.

The mark [2] stands for this setting: [3H]NMS, CHO-K1 cell membranes, mean ± S.E.M.

Each structure is given as a SMILES string.

The melting point is the temperature, or range, at which the solid turns liquid. `C[N+](C)(C)C[C@@H]1COC[C@@](c2ccccc2)(C2CCCCC2)O1.[I-]` (relative stereo) [3a, 1-((2R*,6S*)-6-Cyclohexyl-6-phenyl-1,4-dioxan-2-yl)-N,N,N-trimethylmethanaminium Iodide] showed a melting point of 270 to 271 °C. At hM5 mAChR (setting [2]), the “pKi hM5” value is listed as 7.26 ± 0.05. In addition, on hM2 mAChR (setting [2]), the “pKi hM2” value is on record as 7.36 ± 0.12. For the same molecule, the “pKi hM1” value on hM1 mAChR (setting [2]) amounted to 8.03 ± 0.09. For the same molecule, the “pKi hM3” value on hM3 mAChR (setting [2]) came out at 7.84 ± 0.13. Moreover, on hM4 mAChR (setting [2]), the “pKi hM4” value was 7.51 ± 0.08.

For the molecule `C[N+](C)(C)C[C@@H]1COC[C@](c2ccccc2)(C2CCCCC2)O1` [(2R,6R)-(+)-3b, 1-((2R,6R)-6-Cyclohexyl-6-phenyl-1,4-dioxan-2-yl)-N,N,N-trimethylmethanaminium Iodide], the “pKi hM5” value on hM5 mAChR (setting [2]) is on record as 7.68 ± 0.35. The “pKi hM2” value on hM2 mAChR (setting [2]) stood at 7.86 ± 0.14. The “pKi hM1” value on hM1 mAChR (setting [2]) was 8.30 ± 0.25. Further, the “pKi hM3” value on hM3 mAChR (setting [2]) is given as 7.51 ± 0.12. The “pKi hM4” value on hM4 mAChR (setting [2]) came out at 7.45 ± 0.11.

Consider `CN(C)C[C@@H]1COC[C@](c2ccccc2)(C2CCCCC2)O1` [(2R,6R)-(+)-33b], for which the “pKi hM5” value on hM5 mAChR (setting [2]) is on record as 7.16 ± 0.27. The “pKi hM2” value on hM2 mAChR (setting [2]) was 7.17 ± 0.11. In addition, the “pKi hM1” value at hM1 mAChR (setting [2]) is recorded as 7.68 ± 0.16. For the same molecule, the “pKi hM3” value on hM3 mAChR (setting [2]) came out at 6.73 ± 0.06. The “pKi hM4” value at hM4 mAChR (setting [2]) is listed as 7.01 ± 0.08.

`C[N+](C)(C)C[C@H]1COC[C@@](c2ccccc2)(C2CCCCC2)O1.[I-]` [(2S,6S)-(−)-3b, 1-((2S,6S)-6-Cyclohexyl-6-phenyl-1,4-dioxan-2-yl)-N,N,N-trimethylmethanaminium Iodide]: on hM5 mAChR (setting [2]), the “pKi hM5” value is reported as 9.18 ± 0.18. Besides, the “pKi hM2” value at hM2 mAChR (setting [2]) is given as 8.22 ± 0.10. Moreover, the “ER (eudismic ratio) hM2” value at hM2 mAChR is 2. Further, the “pKi hM1” value on hM1 mAChR (setting [2]) came to 9.52 ± 0.19. For the same molecule, the “ER (eudismic ratio) hM1” value on hM1 mAChR amounted to 17. Besides, the “pKi hM3” value on hM3 mAChR (setting [2]) amounted to 9.05 ± 0.10. The “ER (eudismic ratio) hM3” value on hM3 mAChR worked out at 35. Further, the “pKi hM4” value on hM4 mAChR (setting [2]) amounted to 9.17 ± 0.19. In addition, the “ER (eudismic ratio) hM4” value at hM4 mAChR was 52.

`CN(C)C[C@H]1COC[C@@](c2ccccc2)(C2CCCCC2)O1` [(2S,6S)-(−)-33b]: the “pKi hM5” value at hM5 mAChR (setting [2]) was 8.83 ± 0.10. Moreover, the “ER (eudismic ratio) hM5” value at hM5 mAChR (eutomer vs distomer) is reported as 47. In addition, the “pKi hM2” value on hM2 mAChR (setting [2]) came out at 8.10 ± 0.10. The “ER (eudismic ratio) hM2” value on hM2 mAChR worked out at 9. Besides, on hM1 mAChR (setting [2]), the “pKi hM1” value was 9.10 ± 0.28. The “ER (eudismic ratio) hM1” value on hM1 mAChR is given as 26. At hM3 mAChR (setting [2]), the “pKi hM3” value is on record as 9.02 ± 0.10. Moreover, at hM3 mAChR, the “ER (eudismic ratio) hM3” value was 195. In addition, the “pKi hM4” value at hM4 mAChR (setting [2]) was 9.09 ± 0.15. For the same molecule, the “ER (eudismic ratio) hM4” value on hM4 mAChR is given as 120.

On to `C[N+](C)(C)C[C@H]1COCC(c2ccccc2)(c2ccccc2)O1` [(S)-(−)-2], for which the “reduction of volume-induced contractions of the urinary bladder” value with urinary bladder is listed as “more efficaciously reduced the volume-induced contractions of the urinary bladder”.

Take `CN1[C@@H]2CC[C@H]1C[C@@H](OC(=O)C(CO)c1ccccc1)C2` (stereo partly shown) [atropine]: the “effect on carbachol-induced MSC viability” value in series [1] (pre-incubation 1 h, then carbachol 10^–10 M for 24 h) is recorded as “able to contrast the increase of carbachol-induced MSC viability”.

Take `C[N+](C)(C)CCOC(N)=O` [carbachol]: the “effect of agonist on MSC viability” value in series [1] (carbachol 10^–10 M, 24 h) is “increase of carbachol-induced MSC viability”.

For `C[N+](C)(C)CC1COC(c2ccccc2)(c2ccccc2)CO1` (stereo not shown) [compound 10, 1-(5,5-Diphenyl-1,4-dioxan-2-yl)-N,N,N-trimethylmethanaminium Iodide], the Ki at hM5 mAChR ([3H]NMS, CHO-K1 cell membranes, mean ± S.E.M., read-out: pKi hM5 (converted)) is 0.158 µM; at hM2 mAChR ([3H]NMS, CHO-K1 cell membranes, mean ± S.E.M., read-out: pKi hM2 (converted)), 0.178 µM; at hM1 mAChR ([3H]NMS, CHO-K1 cell membranes, mean ± S.E.M., read-out: pKi hM1 (converted)) it was 0.0363 µM; at hM3 mAChR ([3H]NMS, CHO-K1 cell membranes, mean ± S.E.M., read-out: pKi hM3 (converted)), 0.135 µM; at hM4 mAChR ([3H]NMS, CHO-K1 cell membranes, mean ± S.E.M., read-out: pKi hM4 (converted)), 0.155 µM.
